Test [1] is described as follows: Permeabilization of LUVs, carboxyfluorescein release (lipid droplet mimetic). Particulars: POPC:Cholesterol 9:1. From the text:
(§1) Figure 8 Permeabilization of LUVs. (A) Percentage of carboxyfluorescein release in POPC:POPS (9:1) Post addition of LUVs at different concentrations of Hecate and GA-Hecate. (B) Percentage of carboxyfluorescein release results in POPC:Cholesterol (9:1) LUVs after the addition of different concentrations of Hecate and GA-Hecate. The bars indicate SD.
(§2) Phosphatidylcholine:Cholesterol (POPC:Cholesterol - 9:1; m:m) and phosphatidylcholine:phosphatidylserine (POPC:POPS - 9:1; m:m) vesicles, which mimic lipid droplets and the virus envelope, respectively, were prepared at a concentration of 15 mmol·L^−1. Each mixture was submitted to lipid solubilization in chloroform/methanol (4:1; v:v) and subsequent evaporation by nitrogen gas flow, resulting in the formation of a lipid film. The product evaporated using a vacuum procedure for complete removal of the solvents and then a solution containing the fluorophore carboxyfluorescein (CF; 50 mM) was added. The mixture was warmed up to 60 °C, sonicated and agitated for equal periods for 10 min to allow for the formation of vesicles encapsulated with CF. Following this, the mixture was processed in an extruder machine (Avanti Polar Lipids) to obtain large unilamellar vesicles. The obtained solution was then applied to a size exclusion column with Sephadex G20 resin for separation of the unencapsulated CF. […]

Test [2] concerns HCVcc FL-J6/JFH-50C19Rluc2AUbi (genotype 2a). Kind of test: HCVcc replication (full-length replicon, Renilla luciferase / protein). The test is classed as cell-based, hepatitis C virus. Particulars: 20 μM; 48 h; viral RNA (luciferase) and protein levels. From the text: Figure 4 GA-Hecate effect on HCVcc replication. (A) HCV RNA expression measured by the Renilla luciferase reporter gene. (B) HCV non-structural (NS5A) protein expression. GAPDH was used as an endogenous control. Water was used as a negative control of virus replication inhibition (Control (−)), and cyclosporine A was used as a positive control of virus replication inhibition (Control (+)). Bars represent triplicate samples of three independent assays. RLU - Relative light units. ***P < 0.001 vs Control (−); F = 273.2, df (between columns) = 5.
Cell lines harboring subgenomic or genomic replicons were seeded at 5 × 10^3 cells /well on 96-well plates and the compounds were added 24 h post-seeding, in a concentration range between 2.5–20 μM. […] Luciferase activity was measured using a luminometer (FLUOstar Omega/BMG LABTECH, Offenburg, BW, DE). […]
HCV (FL J6/JFH) infected cells were used to evaluate virus protein expression after peptide treatment. […] Total protein was quantified using a BCA assay (Thermo-Scientific) following the manufacturer’s instructions. […] Finally, the membrane was incubated for 1 minute with Pierce ECL Western Blotting Substrate (Thermo-Scientific-Pierce, Rockford, IL, USA), and the luminescence intensity was captured on a Chemi-Doc System (Bio-Rad, Amadora, PT). […]
In general terms: A replicon is a self-replicating genome or part of one, used to study replication in cells.

Test [3] in a line: Permeabilization of LUVs, carboxyfluorescein release (viral envelope/cell membrane mimetic). Particulars: POPC:POPS 9:1.
Source text: as §1, §2

The test system of test [4] is HCVcc particles released from treated cells, naïve Huh-7.5 cells. Kind of test: Infectivity assay of released particles (focus forming units). The test is classed as cell-based, hepatitis C virus. The procedure: Figure 6 GA-Hecate effect on HCV Release and infectivity. (A) HCV-infected Huh-7.5 cells were treated for 24 h with GA-Hecate. RNA was isolated and summited to qPCR for HCV 5′ UTR. Intracellular HCV expression was normalized by GAPDH, and extracellular HCV expression was calculated by absolute quantification. The difference between the intra and extracellular RNA expression represents the HCV release. Bars represent triplicate samples of three independent assays. Naringenin (200 μM) was used as a positive control of HCV release inhibition and water was a negative control of HCV release inhibition. ^aP < 0.001 vs Control (−), intracellular. ^bP < 0.001 vs Control (−), extracellular. F = 22.58, df (row factor) = 4. (B) Infectivity. HCV-infected Huh-7.5 cells were treated for 24 h with GA-Hecate, and then the supernatant was collected and used to infect naïve Huh-7.5 cells. The capacity of HCVcc particles to generate a new infection after GA-Hecate treatment is represented by the bars. […]
To assess the effect of GA-Hecate on HCV virion infectivity, a similar process to release/assembly was done and the supernatant (extracellular content) was collected and used to infect naïve Huh-7.5 cells. HCV infectivity was evaluated by the focus forming units assay, following an indirect immunofluorescence (IFI) assay for HCV NS5A as previously described by Batista et al.[35].

[5] abbreviates: peptide 0.1 μM, 1% Triton = 100%, once in triplicate.

The values that follow come from article PMC6156508, “GA-Hecate antiviral properties on HCV whole cycle represent a new antiviral class and open the door for the development of broad spectrum antivirals” (Scientific Reports, 2018).

Where a SMILES comes first, the peptide text is derived from it. The star is where a group is joined. Galloyl = O=C(c1cc(O)c(O)c(O)c1)*

As to `CC(C)C[C@H](NC(=O)[C@H](C)NC(=O)[C@H](CCCCN)NC(=O)[C@H](CCCCN)NC(=O)[C@H](CC(C)C)NC(=O)[C@H](C)NC(=O)[C@H](CCCCN)NC(=O)[C@H](CCCCN)NC(=O)[C@H](CC(C)C)NC(=O)[C@H](CCCCN)NC(=O)[C@H](CCCCN)NC(=O)[C@H](CC(C)C)NC(=O)[C@H](C)NC(=O)[C@H](CCCCN)NC(=O)[C@H](CCCCN)NC(=O)[C@H](CC(C)C)NC(=O)[C@H](C)NC(=O)[C@H](CCCCN)NC(=O)[C@H](CC(C)C)NC(=O)[C@H](C)NC(=O)[C@H](CC(C)C)NC(=O)[C@H](C)NC(=O)[C@H](Cc1ccccc1)NC(=O)c1cc(O)c(O)c(O)c1)C(N)=O` [GA-Hecate] (Galloyl-FALALKALKKALKKLKKALKKAL-NH2), in test [1], the “permeabilization effect relative to Hecate (fold higher)” value was “approximately 2 fold”. In addition, the “permeabilization of LUVs (carboxyfluorescein release)” value is “approximately 70%” in test [1] (setting [5]) and ~20% in test [3] (setting [5]). Also, the “inhibition of HCVcc replication” value in test [2] is listed as “approximately 85%”. In addition, the “interaction capacity relative to Hecate (fold lower)” value in test [3] is 2- to 3 fold. Also, the “infection inhibition by released particles (infectivity)” value in test [4] (20 μM, supernatant of cells treated 24 h on naïve Huh-7.5) is on record as “approximately 100%”. Also, the “share of released HCV able to generate a new infection” value in test [4] (supernatant of GA-Hecate-treated cells) was “less than 1%”.
